# Measurements reported in patent publication US20090054376A1, “BENZOFURAN DERIVATIVES WITH THERAPEUTIC ACTIVITIES” (Pharmos Corporation, priority 2005, published 2009).
# What was measured:
# IL-10 = assay: Gene expression in LPS activated RAW 264.7 macrophages, IL-10; type: cell-based, mouse; details: RAW 264.7, 10 μM, LPS 1 μg/ml, RNA 3 hrs after activation
# Procedure: RAW 264.7 macrophages, a mouse cell line (ATCC # TIB 71), were grown in Dulbecco's modified Eagle's medium (DMEM) with 4 mM L-glutamine adjusted to contain 1.5 g/L sodium bicarbonate, 4.5 g/L glucose, and 10% heat inactivated fetal bovine serum. Cells were grown in tissue culture flasks and seeded at appropriate density into 6 wells tissue culture plates. Four million Raw cells in half a milliliter were stimulated with 1 μg/ml LPS E. coli 055:B5 (DIFCO Laboratories). The mouse macrophages were pre-treated for one hour with controls or 10 μM of test compounds, and later on activated with LPS. RNA samples were extracted from the cells 3 hrs after activation and gene expression levels were analyzed by real-time RT-PCR. In parallel, supernatants were collected and secretion of inflammatory mediators was analyzed using ELISA techniques according to the instructions of the kit manufacturer.
# Total RNA is prepared using SV total RNA isolation system (Promega). The cells were homogenized in lysis buffer. […] RNA concentrations were determined using GeneQuant II (Pharmacia-Amersham). […] Quantitative real-time RT-PCR included 1 μl of the cDNA, 300 nM of the appropriate forward and reverse primers (according to the gene monitored) and 7.5 μl of the reaction mix containing buffer, nucleotides, Taq polymerase and SYBER green (SYBER Green master mix, Applied Biosystems), in a total reaction volume of 15 μl. […]
# [1] = test system: PLP induced remitting-relapsing EAE; assay: PLP induced remitting-relapsing EAE; type: in vivo, SJL female mice; details: for average clinical score on the first peak of the disease: vehicle 3.63±0.25; for average clinical score at the second peak of the disease (first relapse): vehicle 3.14±0.48; for reduction in average clinical score at peak as compared to vehicle: first peak; for AUC of clinical score: over 23 days, vehicle 54.13±9.58; for reduction in average clinical score as compared to vehicle: second peak
# Human CB2 Receptor = molecular target: T1, Human CB2 Receptor (Homo sapiens, UniProt P34972); assay: [35S]GTPγS-binding assay, hCB2; type: biochemical; details: GTPγS, Human CB2 Receptor, NB = no binding
# T1 construct: host or cells: Sf9 or HEK-293 cells (membranes)
# T1 sequence (P34972 whole entry): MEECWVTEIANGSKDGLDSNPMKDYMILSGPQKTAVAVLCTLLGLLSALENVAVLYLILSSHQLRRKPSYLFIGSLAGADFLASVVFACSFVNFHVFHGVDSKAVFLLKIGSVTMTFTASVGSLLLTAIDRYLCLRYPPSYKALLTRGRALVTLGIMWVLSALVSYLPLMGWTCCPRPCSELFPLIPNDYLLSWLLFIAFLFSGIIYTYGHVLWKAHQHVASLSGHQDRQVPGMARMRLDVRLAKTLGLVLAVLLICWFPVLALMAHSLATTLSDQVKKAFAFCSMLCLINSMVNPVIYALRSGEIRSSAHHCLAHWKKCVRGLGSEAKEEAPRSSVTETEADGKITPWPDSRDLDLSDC
# Procedure: Functional activity of compounds of the invention toward the cannabinoid receptors was determined by stimulation of [^35S]-GTPγS binding using membranes from HEK-293 cells expressing the hCB1 receptor and membranes expressing the hCB2 receptor derived from either Sf9 (PerkinElmer) or from HEK-293 cells. Activities were compared to that of the known cannabinoid full agonist CP55940 (Alexis). The purpose of this experiment is to determine the potency of the compounds of the invention as agonists or antagonists toward each of the receptor tested.
# [^35S]-GTPγS binding reactions were performed at 30° C. in 96-well plates containing 5-10 μg membrane protein suspended in 0.1 ml binding buffer [20 mM HEPES-NaOH, pH 7.4, 5 mM MgCl2, 100 mM NaCl, 0.2% (w/v) bovine serum albumin] supplemented with 50 μM GDP and 0.06 nM-10 μM of the compound being tested. Binding was initiated by the addition of [^35S]GTPγS (0.3 nM final concentration). Incubations were performed for 90 minutes and were terminated by filtration on GF/C filter plates (PerkinEimer). Filters were washed ten times with ice-cold wash buffer (20 mM HEPES-NaOH, pH 7.4, 10 mM sodium pyrophosphate). Non-specific binding was measured in the presence of 15 μM GTPγS.
# Assays were performed in duplicates. Data was analyzed by plotting on the X axis the log concentration against percent of specific [^35S]GTPγS binding out of basal [^35S]GTPγS binding on the Y axis, non-linear regression is then performed using GraphPad Prism, version 3.0 (GraphPad, San Diego, Calif.) to calculate the EC50 and Emax of the compound. The EC50 value represents the concentration at which there is 50% [^35S]GTPγS binding and the Emax value the upper plateau of the curve.
smiles,measurement,setting,value
"CCCCC(C)(C)c1cc(O)c2c(c1)OC1C2CCC(C)(C)C1O (stereo not drawn) [Compound C6S-7, 3-(1,1-dimethylpentyl)-7,7-dimethyl-5a,6,7,8,9,9a-hexahydro-dibenzofuran-1,6-diol]","Percent inhibition of gene expression, IL-10",IL-10,33%
"CCCCCCC(C)(C)c1cc(O)c2c(c1)OC1C(O)CCCCC21 (stereo not drawn) [Compound C7S-2, 2-(1,1-dimethylheptyl)-5,6,7,8,9,9a-hexahydro-4bH-10-oxa-benzo[α]azulen-4,9-diol]",average clinical score on the first peak of the disease,[1]; 5 mg/kg p.o. daily for 10 days,2.78±0.15
same,average clinical score at the second peak of the disease (first relapse),[1]; 5 mg/kg p.o.,1.25±0.41
same,average clinical score on the first peak of the disease,[1]; 10 mg/kg i.p. daily for 10 days,2.43±0.26
same,average clinical score at the second peak of the disease (first relapse),[1]; 10 mg/kg i.p.,0.57±0.11
same,reduction in average clinical score at peak as compared to vehicle,[1]; 5 mg/kg p.o.,23%
same,reduction in average clinical score at peak as compared to vehicle,[1]; 10 mg/kg i.p.,33%
same,reduction of overall severity of the disease (expressed in AUC),[1]; i.p.,64%
same,AUC of clinical score,[1]; 5 mg/kg p.o.,28.13±5.74
same,AUC of clinical score,[1]; 10 mg/kg i.p.,19.43±2.51
same,reduction of overall severity of the disease (expressed in AUC),[1]; p.o.,48%
same,reduction in average clinical score as compared to vehicle,[1]; i.p.,82%
same,reduction in average clinical score as compared to vehicle,[1]; p.o.,60%
same,EC50,Human CB2 Receptor,0.227 µM
same,Emax,Human CB2 Receptor; upper plateau of curve,26%
